Patent US20110263664A1, “Inhibitors of PIM-1 Protein Kinases, Compositions and Methods for Treating Prostate Cancer” (MUSC FOUNDATION FOR RESEARCH DEVELOPMENT, priority 2007, published 2011)

Legend:
Type in all cases: biochemical
PLK1 = PLK1 (Homo sapiens, UniProt P53350); experiment: Kinase selectivity, Table 5: PLK1; conditions: read-out: selectivity data (inhibition), PLK1
Ikkβ = Ikkβ (Homo sapiens, UniProt O14920); experiment: Kinase selectivity, Table 5: Ikkβ; conditions: read-out: selectivity data (inhibition), Ikkβ
ABL = ABL (Homo sapiens, UniProt P00519); experiment: Kinase selectivity, Table 5: ABL; conditions: read-out: selectivity data (inhibition), ABL
SGK1 = SGK1 (Homo sapiens, UniProt O00141); experiment: Kinase selectivity, Table 5: SGK1; conditions: read-out: selectivity data (inhibition), SGK1
PKA = PKA (Homo sapiens, UniProt P17612); experiment: Kinase selectivity, Table 5: PKA; conditions: read-out: selectivity data (inhibition), PKA
MST2 = MST2 (Homo sapiens, UniProt Q13188); experiment: Kinase selectivity, Table 5: MST2; conditions: read-out: selectivity data (inhibition), MST2
HGK = HGK (Homo sapiens, UniProt O95819); experiment: Kinase selectivity, Table 5: HGK; conditions: read-out: selectivity data (inhibition), HGK
JNK2 = JNK2 (Homo sapiens, UniProt P45984); experiment: Kinase selectivity, Table 5: JNK2; conditions: read-out: selectivity data (inhibition), JNK2
SRC = SRC (Homo sapiens, UniProt P12931); experiment: Kinase selectivity, Table 5: SRC; conditions: read-out: selectivity data (inhibition), SRC
p70S6K = p70S6K (Homo sapiens, UniProt P23443); experiment: Kinase selectivity, Table 5: p70S6K; conditions: read-out: selectivity data (inhibition), p70S6K
CAMK4 = CAMK4 (Homo sapiens, UniProt Q16566); experiment: Kinase selectivity, Table 5: CAMK4; conditions: read-out: selectivity data (inhibition), CAMK4
Erk1 = Erk1 (Homo sapiens, UniProt P27361); experiment: Kinase selectivity, Table 5: Erk1; conditions: read-out: selectivity data (inhibition), Erk1
ROCK2 = ROCK2 (Homo sapiens, UniProt O75116); experiment: Kinase selectivity, Table 5: ROCK2; conditions: read-out: selectivity data (inhibition), ROCK2
AurA = AurA (Homo sapiens, UniProt O14965); experiment: Kinase selectivity, Table 5: AurA; conditions: read-out: selectivity data (inhibition), AurA
CDK2 = CDK2 (Homo sapiens, UniProt P24941); experiment: Kinase selectivity, Table 5: CDK2; conditions: read-out: selectivity data (inhibition), CDK2
IRAK4 = IRAK4 (Homo sapiens, UniProt Q9NWZ3); experiment: Kinase selectivity, Table 5: IRAK4; conditions: read-out: selectivity data (inhibition), IRAK4
MSK1 = MSK1 (Homo sapiens, UniProt O75582); experiment: Kinase selectivity, Table 5: MSK1; conditions: read-out: selectivity data (inhibition), MSK1
GSK3β = GSK3β (Homo sapiens, UniProt P49841); experiment: Kinase selectivity, Table 5: GSK3β; conditions: read-out: selectivity data (inhibition), GSK3β
KDR = KDR (Homo sapiens, UniProt P35968); experiment: Kinase selectivity, Table 5: KDR; conditions: read-out: selectivity data (inhibition), KDR
PKGα = PKGα (Homo sapiens, UniProt Q13976); experiment: Kinase selectivity, Table 5: PKGα; conditions: read-out: selectivity data (inhibition), PKGα
MARK1 = MARK1 (Homo sapiens, UniProt Q9P0L2); experiment: Kinase selectivity, Table 5: MARK1; conditions: read-out: selectivity data (inhibition), MARK1
PIM2 = PIM2 (Homo sapiens, UniProt Q9P1W9); experiment: Kinase selectivity, Table 5: PIM2; conditions: read-out: selectivity data (inhibition), PIM2
LCK = LCK (Homo sapiens, UniProt P06239); experiment: Kinase selectivity, Table 5: LCK; conditions: read-out: selectivity data (inhibition), LCK
LYN = LYN (Homo sapiens, UniProt P07948); experiment: Kinase selectivity, Table 5: LYN; conditions: read-out: selectivity data (inhibition), LYN
PAK2 = PAK2 (Homo sapiens, UniProt Q13177); experiment: Kinase selectivity, Table 5: PAK2; conditions: read-out: selectivity data (inhibition), PAK2
FLT3 = FLT3 (Homo sapiens, UniProt P36888); experiment: Kinase selectivity, Table 5: FLT3; conditions: read-out: selectivity data (inhibition), FLT3
CHK1 = CHK1 (Homo sapiens, UniProt O14757); experiment: Kinase selectivity, Table 5: CHK1; conditions: read-out: selectivity data (inhibition), CHK1
c-Raf = c-Raf (Homo sapiens, UniProt P04049); experiment: Kinase selectivity, Table 5: c-Raf; conditions: read-out: selectivity data (inhibition), c-Raf
PKCβ2 = PKCβ2 (Homo sapiens, UniProt P05771); experiment: Kinase selectivity, Table 5: PKCβ2; conditions: read-out: selectivity data (inhibition), PKCβ2
c-TAK1 = c-TAK1 (Homo sapiens, UniProt P27448); experiment: Kinase selectivity, Table 5: c-TAK1; conditions: read-out: selectivity data (inhibition), c-TAK1
BTK = BTK (Homo sapiens, UniProt Q06187); experiment: Kinase selectivity, Table 5: BTK; conditions: read-out: selectivity data (inhibition), BTK
DYRK1α = DYRK1α (Homo sapiens, UniProt Q13627); experiment: Kinase selectivity, Table 5: DYRK1α; conditions: read-out: selectivity data (inhibition), DYRK1α
PKCζ = PKCζ (Homo sapiens, UniProt Q05513); experiment: Kinase selectivity, Table 5: PKCζ; conditions: read-out: selectivity data (inhibition), PKCζ
BMX = BMX (Homo sapiens, UniProt P51813); experiment: Kinase selectivity, Table 5: BMX; conditions: read-out: selectivity data (inhibition), BMX

SGK1, sequence (O00141 whole entry, species assumed): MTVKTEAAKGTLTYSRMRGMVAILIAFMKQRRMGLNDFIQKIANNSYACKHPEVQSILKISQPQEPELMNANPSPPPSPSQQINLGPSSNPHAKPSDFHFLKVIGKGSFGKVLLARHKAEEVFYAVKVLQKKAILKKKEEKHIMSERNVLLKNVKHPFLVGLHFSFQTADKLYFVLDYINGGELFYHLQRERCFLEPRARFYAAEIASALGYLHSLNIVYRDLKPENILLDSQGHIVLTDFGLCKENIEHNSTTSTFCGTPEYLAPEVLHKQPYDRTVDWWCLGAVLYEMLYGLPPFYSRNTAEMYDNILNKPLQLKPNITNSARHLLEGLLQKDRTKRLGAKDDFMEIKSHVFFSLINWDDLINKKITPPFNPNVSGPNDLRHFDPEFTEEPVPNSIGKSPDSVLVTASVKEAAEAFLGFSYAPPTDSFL
CHK1, sequence (O14757 whole entry, species assumed): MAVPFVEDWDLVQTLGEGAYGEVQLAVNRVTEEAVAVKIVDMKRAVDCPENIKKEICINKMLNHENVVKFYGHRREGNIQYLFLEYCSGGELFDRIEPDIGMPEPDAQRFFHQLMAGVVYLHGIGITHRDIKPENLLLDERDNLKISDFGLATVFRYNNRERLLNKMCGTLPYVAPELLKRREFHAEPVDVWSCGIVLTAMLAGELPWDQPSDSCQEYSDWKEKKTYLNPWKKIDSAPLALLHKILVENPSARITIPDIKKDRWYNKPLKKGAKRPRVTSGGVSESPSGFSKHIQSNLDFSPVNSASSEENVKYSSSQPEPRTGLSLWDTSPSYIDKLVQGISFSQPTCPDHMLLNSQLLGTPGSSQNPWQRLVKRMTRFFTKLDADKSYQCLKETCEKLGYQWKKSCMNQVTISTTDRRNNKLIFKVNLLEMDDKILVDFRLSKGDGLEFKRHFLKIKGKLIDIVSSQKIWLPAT
MARK1, sequence (Q9P0L2 whole entry, species assumed): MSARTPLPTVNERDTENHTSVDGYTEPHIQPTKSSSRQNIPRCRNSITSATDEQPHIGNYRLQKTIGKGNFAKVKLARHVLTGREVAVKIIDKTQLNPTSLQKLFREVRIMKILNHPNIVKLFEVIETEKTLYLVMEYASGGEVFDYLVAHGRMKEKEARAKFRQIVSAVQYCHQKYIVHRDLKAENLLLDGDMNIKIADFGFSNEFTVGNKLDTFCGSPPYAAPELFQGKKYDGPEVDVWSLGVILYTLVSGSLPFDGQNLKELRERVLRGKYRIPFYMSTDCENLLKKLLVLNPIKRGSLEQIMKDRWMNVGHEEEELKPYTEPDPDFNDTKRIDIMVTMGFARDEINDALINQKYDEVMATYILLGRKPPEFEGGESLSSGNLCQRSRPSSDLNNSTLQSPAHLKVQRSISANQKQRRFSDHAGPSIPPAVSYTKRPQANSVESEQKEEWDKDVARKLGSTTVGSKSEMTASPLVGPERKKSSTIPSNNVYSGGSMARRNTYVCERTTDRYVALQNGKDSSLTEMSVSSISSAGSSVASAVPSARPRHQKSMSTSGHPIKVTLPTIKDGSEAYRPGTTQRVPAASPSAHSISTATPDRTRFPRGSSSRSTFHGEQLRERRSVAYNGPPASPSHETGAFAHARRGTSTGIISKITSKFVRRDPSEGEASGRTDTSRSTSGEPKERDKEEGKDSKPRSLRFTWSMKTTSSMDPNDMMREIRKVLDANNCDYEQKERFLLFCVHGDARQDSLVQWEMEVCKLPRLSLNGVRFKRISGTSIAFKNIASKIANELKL
IRAK4, sequence (Q9NWZ3 whole entry, species assumed): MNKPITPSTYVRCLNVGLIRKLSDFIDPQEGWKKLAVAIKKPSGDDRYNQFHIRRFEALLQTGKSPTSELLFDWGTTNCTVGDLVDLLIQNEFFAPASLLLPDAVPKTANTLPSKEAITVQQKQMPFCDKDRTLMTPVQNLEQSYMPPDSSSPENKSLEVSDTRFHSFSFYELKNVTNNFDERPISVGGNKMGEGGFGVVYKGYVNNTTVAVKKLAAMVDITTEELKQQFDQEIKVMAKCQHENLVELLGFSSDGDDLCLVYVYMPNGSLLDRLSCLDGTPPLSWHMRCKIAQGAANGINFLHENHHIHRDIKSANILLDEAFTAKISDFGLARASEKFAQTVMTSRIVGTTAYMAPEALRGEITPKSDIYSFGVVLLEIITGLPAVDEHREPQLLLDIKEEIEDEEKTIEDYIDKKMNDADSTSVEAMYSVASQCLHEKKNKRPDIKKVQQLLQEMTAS
c-TAK1, sequence (P27448 whole entry, species assumed): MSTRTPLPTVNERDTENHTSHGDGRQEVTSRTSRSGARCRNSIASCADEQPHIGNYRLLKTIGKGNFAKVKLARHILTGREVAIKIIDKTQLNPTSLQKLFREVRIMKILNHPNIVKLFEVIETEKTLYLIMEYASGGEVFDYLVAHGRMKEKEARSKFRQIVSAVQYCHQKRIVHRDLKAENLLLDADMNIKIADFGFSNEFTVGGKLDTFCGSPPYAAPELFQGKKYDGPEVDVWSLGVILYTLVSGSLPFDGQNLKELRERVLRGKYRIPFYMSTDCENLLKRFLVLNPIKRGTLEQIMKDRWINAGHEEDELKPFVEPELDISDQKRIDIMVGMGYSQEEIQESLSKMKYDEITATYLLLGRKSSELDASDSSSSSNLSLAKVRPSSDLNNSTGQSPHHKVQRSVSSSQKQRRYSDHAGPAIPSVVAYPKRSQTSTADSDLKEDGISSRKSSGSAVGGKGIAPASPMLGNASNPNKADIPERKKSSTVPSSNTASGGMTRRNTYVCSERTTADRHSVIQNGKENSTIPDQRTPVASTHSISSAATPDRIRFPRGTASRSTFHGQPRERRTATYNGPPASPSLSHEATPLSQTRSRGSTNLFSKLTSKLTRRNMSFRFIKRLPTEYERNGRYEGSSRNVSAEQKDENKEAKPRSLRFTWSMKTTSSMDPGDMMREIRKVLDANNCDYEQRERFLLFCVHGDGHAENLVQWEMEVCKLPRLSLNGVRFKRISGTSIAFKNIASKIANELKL
c-Raf, sequence (P04049 whole entry, species assumed): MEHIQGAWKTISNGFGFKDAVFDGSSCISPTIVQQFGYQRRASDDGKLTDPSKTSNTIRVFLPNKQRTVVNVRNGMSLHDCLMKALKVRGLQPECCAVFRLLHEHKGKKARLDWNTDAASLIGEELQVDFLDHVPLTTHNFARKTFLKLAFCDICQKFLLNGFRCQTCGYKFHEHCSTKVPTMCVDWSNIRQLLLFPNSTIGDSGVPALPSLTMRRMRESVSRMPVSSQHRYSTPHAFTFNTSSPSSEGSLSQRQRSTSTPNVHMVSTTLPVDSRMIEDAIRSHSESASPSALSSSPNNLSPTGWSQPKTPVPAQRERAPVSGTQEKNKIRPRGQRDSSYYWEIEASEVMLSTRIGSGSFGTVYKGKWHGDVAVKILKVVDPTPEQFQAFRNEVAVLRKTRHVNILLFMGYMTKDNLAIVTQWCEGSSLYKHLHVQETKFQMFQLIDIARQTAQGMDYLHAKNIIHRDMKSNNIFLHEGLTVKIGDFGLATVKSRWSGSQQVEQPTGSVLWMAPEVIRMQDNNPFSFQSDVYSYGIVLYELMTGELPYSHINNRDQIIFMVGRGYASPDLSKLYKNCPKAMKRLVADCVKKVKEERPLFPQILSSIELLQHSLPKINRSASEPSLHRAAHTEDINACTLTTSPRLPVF
PAK2, sequence (Q13177 whole entry, species assumed): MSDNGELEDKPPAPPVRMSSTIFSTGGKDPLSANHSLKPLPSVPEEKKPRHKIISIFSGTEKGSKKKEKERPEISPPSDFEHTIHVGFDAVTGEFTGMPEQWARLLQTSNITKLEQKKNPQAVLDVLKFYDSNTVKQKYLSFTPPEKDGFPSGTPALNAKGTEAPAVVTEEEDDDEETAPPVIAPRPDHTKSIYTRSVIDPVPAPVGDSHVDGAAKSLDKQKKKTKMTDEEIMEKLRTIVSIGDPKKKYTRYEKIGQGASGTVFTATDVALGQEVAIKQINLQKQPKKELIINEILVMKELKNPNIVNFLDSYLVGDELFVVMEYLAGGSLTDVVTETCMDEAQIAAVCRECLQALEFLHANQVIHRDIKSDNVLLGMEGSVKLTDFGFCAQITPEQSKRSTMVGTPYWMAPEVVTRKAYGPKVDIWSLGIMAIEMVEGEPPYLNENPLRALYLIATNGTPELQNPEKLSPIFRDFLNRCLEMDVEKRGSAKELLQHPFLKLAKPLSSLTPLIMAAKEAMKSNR
PKGα, sequence (Q13976 whole entry): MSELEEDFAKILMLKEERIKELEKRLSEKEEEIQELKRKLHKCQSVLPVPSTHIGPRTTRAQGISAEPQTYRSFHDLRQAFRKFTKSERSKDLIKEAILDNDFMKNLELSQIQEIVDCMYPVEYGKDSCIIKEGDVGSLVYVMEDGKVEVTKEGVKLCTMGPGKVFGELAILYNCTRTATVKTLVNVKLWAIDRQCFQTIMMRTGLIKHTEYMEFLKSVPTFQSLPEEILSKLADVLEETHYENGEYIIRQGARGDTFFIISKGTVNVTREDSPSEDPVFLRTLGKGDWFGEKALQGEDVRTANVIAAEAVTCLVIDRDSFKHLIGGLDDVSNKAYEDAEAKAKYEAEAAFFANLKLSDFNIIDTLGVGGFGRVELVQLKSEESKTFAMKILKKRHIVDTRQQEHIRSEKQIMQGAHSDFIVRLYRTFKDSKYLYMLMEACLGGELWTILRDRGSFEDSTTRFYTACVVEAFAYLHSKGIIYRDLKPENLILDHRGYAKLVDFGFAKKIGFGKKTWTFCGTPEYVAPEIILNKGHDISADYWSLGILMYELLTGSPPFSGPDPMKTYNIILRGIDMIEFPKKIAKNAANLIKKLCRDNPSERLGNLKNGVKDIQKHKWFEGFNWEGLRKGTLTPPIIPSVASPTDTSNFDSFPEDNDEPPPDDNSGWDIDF

Question: With `CC(C)c1ccc(C=C2SC(=O)NC2=O)cc1` [5-(4-iso-propylbenzylidene)thiazolidine-2,4-dione] as the molecule, how does the inhibition at 5 µM (PLK1) read?
Answer: 9%

Question: And the inhibition at 5 µM (Ikkβ)?
Answer: 10%

Question: And the inhibition at 5 µM (ABL)?
Answer: 6%

Question: And the inhibition at 5 µM (SGK1)?
Answer: 5%

Question: And the inhibition at 5 µM (PKA)?
Answer: 3%

Question: And the inhibition at 5 µM (MST2)?
Answer: 1%

Question: What about the inhibition at 5 µM (HGK) of the same molecule?
Answer: 9%

Question: And the inhibition at 5 µM (JNK2)?
Answer: 14%

Question: What about the inhibition at 5 µM (SRC) of the same molecule?
Answer: 4%

Question: What about the inhibition at 5 µM (p70S6K) of the same molecule?
Answer: 8%

Question: And the inhibition at 5 µM (CAMK4)?
Answer: -8%

Question: What about the inhibition at 5 µM (Erk1) of the same molecule?
Answer: 1%

Question: What about the inhibition at 5 µM (ROCK2) of the same molecule?
Answer: 5%

Question: And the inhibition at 5 µM (AurA)?
Answer: 4%

Question: And the inhibition at 5 µM (CDK2)?
Answer: -2%

Question: And the inhibition at 5 µM (IRAK4)?
Answer: 5%

Question: And the inhibition at 5 µM (MSK1)?
Answer: -1%

Question: What about the inhibition at 5 µM (GSK3β) of the same molecule?
Answer: 3%

Question: And the inhibition at 5 µM (KDR)?
Answer: -4%

Question: What about the inhibition at 5 µM (PKGα) of the same molecule?
Answer: 0%

Question: What about the inhibition at 5 µM (MARK1) of the same molecule?
Answer: -6%

Question: And the inhibition at 5 µM (PIM2)?
Answer: 62%

Question: And the inhibition at 5 µM (LCK)?
Answer: 3%

Question: What about the inhibition at 5 µM (LYN) of the same molecule?
Answer: 8%

Question: And the inhibition at 5 µM (PAK2)?
Answer: -1%

Question: What about the inhibition at 5 µM (FLT3) of the same molecule?
Answer: 1%

Question: What about the inhibition at 5 µM (CHK1) of the same molecule?
Answer: -20%

Question: And the inhibition at 5 µM (c-Raf)?
Answer: -1%

Question: And the inhibition at 5 µM (PKCβ2)?
Answer: -1%

Question: What about the inhibition at 5 µM (c-TAK1) of the same molecule?
Answer: 0%

Question: And the inhibition at 5 µM (BTK)?
Answer: 7%

Question: And the inhibition at 5 µM (DYRK1α)?
Answer: 68%

Question: And the inhibition at 5 µM (PKCζ)?
Answer: 3%

Question: And the inhibition at 5 µM (BMX)?
Answer: 10%
